Experimental data published in PubChem BioAssay (NCI).
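Protocol summary: plate cells (96-well), add compound at 5 concentrations, incubate 48 h, interpolate endpoints linearly. Abbreviation: GI50, concentration required for 50% inhibition of growth. TGI is the concentration that stops growth completely.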

Key:
Experiment in all cases: NCI-60 cell line screen, 48 h
BT-549 breast = system: BT-549 breast
RPMI-8226 leukemia = system: RPMI-8226 leukemia
U251 CNS = system: U251 CNS
K-562 leukemia = system: K-562 leukemia
MCF7 breast = system: MCF7 breast
IGROV1 ovarian = system: IGROV1 ovarian
MDA-MB-435 = system: MDA-MB-435
UO-31 renal = system: UO-31 renal
M14 melanoma = system: M14 melanoma
SK-OV-3 ovarian = system: SK-OV-3 ovarian

Row | SMILES | GI50 (BT-549 breast) [µM] | TGI (BT-549 breast) [µM] | GI50 (RPMI-8226 leukemia) [µM] | TGI (RPMI-8226 leukemia) [µM] | GI50 (U251 CNS) [µM] | TGI (U251 CNS) [µM] | GI50 (K-562 leukemia) [µM] | TGI (K-562 leukemia) [µM] | GI50 (MCF7 breast) [µM] | TGI (MCF7 breast) [µM] | GI50 (IGROV1 ovarian) [µM] | TGI (IGROV1 ovarian) [µM] | GI50 (MDA-MB-435) [µM] | TGI (MDA-MB-435) [µM] | GI50 (UO-31 renal) [µM] | TGI (UO-31 renal) [µM] | GI50 (M14 melanoma) [µM] | TGI (M14 melanoma) [µM] | GI50 (SK-OV-3 ovarian) [µM] | TGI (SK-OV-3 ovarian) [µM]
1 | COc1cc2cn3c4ccc(O)cc4nc(N)c3c2cc1OC | 1.61 | 8.96 | 1.25 | 8.32 | 0.11 | 8.32 | 0.0348 | 3.6 | 0.174 | 4.15 | 0.706 | 15.1 | 0.0195 | 12.8 | 0.235 | 2.48 | 0.167 | 8.33 | 0.211 | 10.8
2 | Clc1ccccc1-c1nc(-c2ccncc2)no1 |  | > 100 |  | > 100 |  | > 100 |  | > 100 |  | > 100 |  | > 100 |  | > 100 |  | > 100 |  | > 100 |  | > 100
3 | Cc1cc(S(N)(=O)=O)c(S/C(=N\Nc2ccc([N+](=O)[O-])cc2)c2ccc(O)cc2)cc1Cl | 7.68 | 22.7 | 1.66 | 4.3 | 2.87 | 11.1 | 2.7 | > 100 | 2.19 | 5.06 | 4.62 | 19.9 | 1.8 | 3.44 | 5.66 | 23 | 2.61 | 7.15 | 4.32 | 18.4
4 | Cc1ccc(Nc2[nH]c(C(=O)c3ccc(Cl)cc3)c(N)c2C(=S)Nc2ccccc2)nc1 | 30.7 | > 100 | 25.5 | > 100 | 26.8 | > 100 | 45.4 | > 100 | 33.1 | > 100 | 31.3 | > 100 | 23 | 96.3 | 24.3 | 86.1 | 77.8 | > 100 | 52.3 | > 100
5 | COc1cc(CNc2nc3cc(N)cc(N)c3nc2-c2ccccc2)cc(OC)c1OC | 3.84 | 11.2 | 0.697 | 3 | 1.73 | 6.25 | 1.76 | > 50 | 1.55 | > 50 | 9.11 | > 50 | 0.227 | 0.907 | 11.1 | > 50 | 9.52 | 18.2 | 5.36 | 13.9
6 | COc1ccc2[nH]c(-c3ccccc3)c(C=C(C#N)C#N)c2c1 | 2.17 | > 100 | 2.62 | 20.3 | 3.53 | 25.5 | 2.07 | > 100 | 2.16 | > 100 | 8.35 | > 100 | 0.607 | 4.68 | 6.43 | > 100 | 2.29 | 44.5 | 4.82 | 35.8
7 | Nc1c(S(=O)(=O)O)cc(Nc2cccc(S(N)(=O)=O)c2)c2c1C(=O)c1ccccc1C2=O |  | > 100 |  | > 100 |  | > 100 |  | > 100 |  | > 100 |  | > 100 |  | 32.6 |  | > 100 |  | > 100 |  | 84.6
8 | Cc1c2cnccc2c(C)c2c1c1cc(C(=O)O)ccc1n2C | 1.47 | 4.82 | 1.26 | 5.66 | 0.918 | 7.95 | 1.28 | > 100 | 1.02 | 13.6 | 0.911 | 9.84 | 1.33 | 3.4 | 0.49 | 4.21 | 1.3 | 3.74 | 0.905 | 7.63
9 | NC(=O)c1ccc2nc(-c3ccc(C4(N)CCC4)cc3)c(-c3ccccc3)n2n1 | 1.28 | 14.5 | 10.9 | 30.9 | 6.27 | 21.5 | 13.7 | 36.9 | 0.158 | 17.5 | 0.0886 | 10.7 | 11.8 | 24.4 | 0.409 | 13.5 | 14.3 | 28.6 | 0.243 | 12.7
10 | CCN1CCC2(CC1)NC(=O)c1c(c3ccc(Cl)c(Cl)c3n1C)C2C#N (stereo not given) | 3.61 | 15.2 | 1.55 | 4.59 | 2.83 | 12 | 2.19 | 6.21 | 1.56 | 3.28 | 3.11 | 8.97 | 1.93 | 3.77 | 1.84 | 5.03 | 1.62 | 3.1 | 6.99 | 22.2
11 | COc1cc(-c2nc3ccccc3[nH]2)ccc1OCC(=O)N=Nc1c(O)[nH]c2ccc(Cl)cc12 | 1.98 | 4.03 | 1.12 | 3.76 | 0.468 | 1.88 | 0.454 | 3.1 | 0.57 | 2.39 | 1.52 | 3.05 | 1.43 | 2.76 | 52.3 | > 100 | 1.67 | 3.65 | 1.9 | 3.93
12 | Cc1coc2c1CC1OC1(C)CCC1OC1(C)C2 (stereo not given) |  | > 100 |  | > 100 |  | > 100 |  | > 100 |  | > 100 |  | > 100 |  | > 100 |  | > 100 |  | > 100 |  | > 100
13 | COc1ccc(C2=CC(c3ccc(Oc4ccnc5cc(Cl)ccc45)c(OC)c3)c3c(nc(OC)[nH]c3=O)N2)cc1 (stereo not given) | 3.99 | > 100 | 2.73 | 7.27 | 6.94 | > 100 | 3.73 | > 100 | 3.56 | > 100 | 26 | > 100 | 5.06 | > 100 | 5.97 | > 100 | 88.4 | > 100 | > 100 | > 100
